Values quoted from earlier work in patent US20170083675A1, “Method for Selecting Patient Subpopulation for Custirsen Treatment” (OncoGenex Technologies Inc., priority 2015, published 2017).

System: metastatic castrate resistant prostate cancer (CRPC)
Settings: second-line chemotherapy

**Q.** Which “survival compared to mitoxantrone (in words)” value does the source give for `CO[C@H]1C(=O)[C@]2(C)[C@@H](OC)C[C@H]3OC[C@@]3(OC(C)=O)[C@H]2[C@H](OC(=O)c2ccccc2)[C@]2(O)C[C@H](OC(=O)[C@H](O)[C@@H](NC(=O)OC(C)(C)C)c3ccccc3)C(C)=C1C2(C)C` [cabazitaxel] here?
**A.** The value was “survival advantage”.
